# Experimental data as given in patent US20250345392A1, “ANNEXIN A1 LIQUID PHARMACEUTICAL COMPOSITION” (ResoTher Pharma A/S, priority 2022, published 2025).
# Like-named read-outs stand apart in the source and are kept apart here. Ends that are not written are not given here.
# Assay: Clinical test in humans, three 30-min i.v. infusions 8 hours apart, plasma PK
# Format: in vivo
# Details: human; for time of first measurable concentrations after the start of infusion: each infusion; for half-life / AUC(0-t) / AUC / Cmax / Tmax: in vivo, iv, three 30-min i.v. infusions 8 h apart; for half-life: after the last infusion; for AUC(0-t): read-out: AUC0-24
# Protocol: A total of 8 subjects were included in each group. In each group, 6 subjects received the active treatment and 2 received the placebo. The active treatment was as follows in each group: • Group 9 received three 8 hours apart 30-min Peptide 1 intravenous (i.v.) infusions, wherein each i.v. infusion corresponded to a dose of 50 μg/kg. • Group 10 received three 8 hours apart 30-min Peptide 1 intravenous (i.v.) infusions, wherein each i.v. infusion corresponded to a dose of 100 μg/kg. • Group 11 received three 8 hours apart 30-min Peptide 1 intravenous (i.v.) infusions, wherein each i.v. infusion corresponded to a dose of 140 μg/kg. • Group 12 received three 8 hours apart 30-min Peptide 1 intravenous (i.v.) infusions, wherein each i.v. infusion corresponded to a dose of 200 μg/kg. • Group 13 received three 8 hours apart 30-min Peptide 1 intravenous (i.v.) infusions, wherein each i.v. infusion corresponded to a dose of 250 μg/kg.
# The tested liquid pharmaceutical composition has a pH of 8.2-8.4, and comprises the following: • i) 5 mg/ml of Peptide 1, • ii) 4% (w/w) mannitol, • iii) 1% (w/w) sucrose, • iv) 0.01% (w/w) Polysorbate-80, • v) 10 mM glycyl-glycine, and • vi) sterile water for injection.
# Venous whole blood samples were collected from all subjects.
# Plasma samples were analyzed for Peptide 1 using validated Liquid chromatography—Tandem Mass spectrometry (LC-MS/MS) methods by Charles River Laboratories (CRL).
# Derivation of PK parameters were carried out by PhinC Development using Phoenix WinNonlin® (Version Phoenix 8.1—Certara—Princeton—USA). A non-compartmental analysis (NCA) approach was chosen.
# For the calculation of the PK parameters and characteristics the following rules were applied: • All the plasma concentrations validated by the bioanalytical laboratory and provided to the pharmacokinetics were used for the PK analysis. • The theoretical PK blood sampling time points were used. • At time points in the lag-time between time zero and the first concentration equal or above limit of quantification (LOQ), concentrations below the LOQ (BLQ) were set to zero (0). • Concentrations BLQ between 2 concentrations equal or above LOQ were considered as missing. • Trailing concentrations (at time point between time of last measurable concentrations and time of last blood sample) BLQ were not used in calculations. • For 3 infusions regimen, each infusion was considered separately and BLQ rules were applied for each infusion. […] If the pre-dose value was greater than 5% of Cmax, the subject was dropped from all statistical evaluations.
# AUC0-tau was only calculated if there were at least 3 concentrations above LOQ. • AUC0-24: The area under the plasma concentration-time curve from time zero (pre-dose) to 24 h was calculated as the sum of the 3 AUC0-tau: AUC0-24=AUC0-tau1+AUC0-tau2+AUC0-tau3. • AUC0-t: The area under the concentration-time curve from time zero (pre-dose) to the time of last quantifiable concentration was calculated using a linear trapezoidal method after each administration (AUC0-t1, AUC0-t2 and AUC0-t3, where AUC0-t1 was AUC0-t corresponded to the AUC from pre-dose to the last measurable quantifiable concentration following the first infusion). AUC0-t was only calculated if there were at least 3 concentrations above LOQ. • ke: The terminal plasma elimination rate-constant was estimated from log-linear regression analysis of the terminal phase of the plasma concentration-time profile. The number of points included in the terminal phase was determined by visual inspection of the semi-log plots of the plasma concentration-time profiles. A minimum of 3 data points, including the last measured data point and excluding Cmax, had to be available for the regression. The correlation coefficient for the goodness of the fit of the regression line through the data points (r^2) had to be 0.8000 or higher, for the value to be considered reliable. […]
# [1] = Group 12 (three infusions of 200 μg/kg)
# [2] = Group 13 (three infusions of 250 μg/kg)
# [3] = between 50 μg/kg t.i.d. and 250 μg/kg t.i.d. (dose increased by 5-fold)
# [4] = between 100 μg/kg t.i.d. and 250 μg/kg t.i.d. (dose increased by 2.5-fold)
# [5] = between 140 μg/kg t.i.d. and 250 μg/kg t.i.d. (dose increased by 1.8-fold)
# [6] = between 200 μg/kg t.i.d. and 250 μg/kg t.i.d. (dose increased by 1.25-fold)
# [7] = 100 ug/kg, 100 μg/kg each, mean
# [8] = 140 ug/kg, 140 μg/kg each, mean
# [9] = 200 ug/kg, 200 μg/kg each, mean
# [10] = 250 ug/kg, 250 μg/kg each, mean
substance,measurement,setting,value
AMVSEFLKQAWFIENEEQEYVQTLKSSKGGPGSAVSPYPTFNPSSDV-NH2 [Peptide 1],time up to which concentrations were measurable in all subjects after each infusion,[1],at least 4 h
same,time of first measurable concentrations after the start of infusion,[1],0.16 h
same,time up to which concentrations were measurable in all subjects after each infusion,[2],at least 4 h
same,time of first measurable concentrations after the start of infusion,[2],0.16 h
same,increase of GM of AUC0-24,[3],4.8 fold
same,increase of GM of Global Cmax,[3],5.4 fold
same,increase of GM of AUC0-24,[4],2.1 fold
same,increase of GM of Global Cmax,[4],2.2 fold
same,increase of GM of AUC0-24,[5],1.4 fold
same,increase of GM of Global Cmax,[5],1.6 fold
same,increase of GM of AUC0-24,[6],0.9 fold
same,increase of GM of Global Cmax,[6],1.0 fold
same,GM accumulation ratios on Cmax and AUC0-tau,"between the first and the last infusion, dose range 50-250 μg/kg, no accumulation observed",around 1
same,half-life,"50 ug/kg, 50 μg/kg each, GM",1.37 h
same,AUC(0-t),"50 ug/kg, 50 μg/kg each, GM",1560 ng·h/mL
same,AUC,"50 ug/kg, 50 μg/kg each, GM, read-out: AUC0-t2",416 ng·h/mL
same,AUC,"50 ug/kg, 50 μg/kg each, GM, read-out: AUC0-t3",433 ng·h/mL
same,AUC,"50 ug/kg, 50 μg/kg each, GM, read-out: AUC0-tau2",511 ng·h/mL
same,AUC,"50 ug/kg, 50 μg/kg each, GM, read-out: AUC0-tau3",538 ng·h/mL
same,Cmax,"50 ug/kg, 50 μg/kg each, GM, read-out: Global Cmax",420 ng/mL
same,Tmax,"50 ug/kg, 50 μg/kg each, GM, read-out: Global tmax",4.12 h
same,Tmax,"50 ug/kg, 50 μg/kg each, GM, read-out: tmax3",16.5 h
same,half-life,"50 ug/kg, 50 μg/kg each, mean",1.38 h
same,AUC(0-t),"50 ug/kg, 50 μg/kg each, mean",1570 ng·h/mL
same,AUC,"50 ug/kg, 50 μg/kg each, mean, read-out: AUC0-t1",422 ng·h/mL
same,AUC,"50 ug/kg, 50 μg/kg each, mean, read-out: AUC0-t2",420 ng·h/mL
same,AUC,"50 ug/kg, 50 μg/kg each, mean, read-out: AUC0-t3",437 ng·h/mL
same,AUC,"50 ug/kg, 50 μg/kg each, mean, read-out: AUC0-tau1",513 ng·h/mL
same,Cmax,"50 ug/kg, 50 μg/kg each, mean, read-out: Cmax3",398 ng/mL
same,Cmax,"50 ug/kg, 50 μg/kg each, mean, read-out: Global Cmax",422 ng/mL
same,Tmax,"50 ug/kg, 50 μg/kg each, median, read-out: Global tmax",8.5 h
same,half-life,"100 ug/kg, 100 μg/kg each, GM",2.04 h
same,AUC,"100 ug/kg, 100 μg/kg each, GM, read-out: AUC0-tau1",1100 ng·h/mL
same,AUC,"100 ug/kg, 100 μg/kg each, GM, read-out: AUC0-tau2",1240 ng·h/mL
same,AUC,"100 ug/kg, 100 μg/kg each, GM, read-out: AUC0-tau3",1260 ng·h/mL
same,Cmax,"100 ug/kg, 100 μg/kg each, GM, read-out: Global Cmax",1020 ng/mL
same,Tmax,"100 ug/kg, 100 μg/kg each, GM, read-out: Global tmax",11.8 h
same,half-life,[7],2.18 h
same,AUC(0-t),[7],3620 ng·h/mL
same,AUC,"100 ug/kg, 100 μg/kg each, mean, read-out: AUC0-t2",1130 ng·h/mL
same,AUC,"100 ug/kg, 100 μg/kg each, mean, read-out: AUC0-t3",1090 ng·h/mL
same,Tmax,"100 ug/kg, 100 μg/kg each, median, read-out: Global tmax",12.5 h
same,Tmax,"100 ug/kg, 100 μg/kg each, median, read-out: tmax3",16.5 h
same,AUC,"140 ug/kg, 140 μg/kg each, GM, read-out: AUC0-t1",1660 ng·h/mL
same,AUC,"140 ug/kg, 140 μg/kg each, GM, read-out: AUC0-t2",1760 ng·h/mL
same,AUC,"140 ug/kg, 140 μg/kg each, GM, read-out: AUC0-tau1",1740 ng·h/mL
same,AUC,"140 ug/kg, 140 μg/kg each, GM, read-out: AUC0-tau2",1850 ng·h/mL
same,AUC,"140 ug/kg, 140 μg/kg each, GM, read-out: AUC0-tau3",1690 ng·h/mL
same,Cmax,"140 ug/kg, 140 μg/kg each, GM, read-out: Global Cmax",1400 ng/mL
same,Tmax,"140 ug/kg, 140 μg/kg each, GM, read-out: Global tmax",3.29 h
same,half-life,[8],1.94 h
same,AUC(0-t),[8],5410 ng·h/mL
same,AUC,"140 ug/kg, 140 μg/kg each, mean, read-out: AUC0-t1",1690 ng·h/mL
same,AUC,"140 ug/kg, 140 μg/kg each, mean, read-out: AUC0-t2",1870 ng·h/mL
same,AUC,"140 ug/kg, 140 μg/kg each, mean, read-out: AUC0-t3",1600 ng·h/mL
same,AUC,"140 ug/kg, 140 μg/kg each, mean, read-out: AUC0-tau1",1760 ng·h/mL
same,AUC,"140 ug/kg, 140 μg/kg each, mean, read-out: AUC0-tau2",1940 ng·h/mL
same,Cmax,"140 ug/kg, 140 μg/kg each, mean, read-out: Global Cmax",1430 ng/mL
same,Tmax,"140 ug/kg, 140 μg/kg each, median, read-out: Global tmax",8.41 h
same,Tmax,"140 ug/kg, 140 μg/kg each, median, read-out: tmax3",16.5 h
same,half-life,"200 ug/kg, 200 μg/kg each, GM",1.93 h
same,AUC(0-t),"200 ug/kg, 200 μg/kg each, GM",8020 ng·h/mL
same,AUC,"200 ug/kg, 200 μg/kg each, GM, read-out: AUC0-t2",2560 ng·h/mL
same,AUC,"200 ug/kg, 200 μg/kg each, GM, read-out: AUC0-t3",2690 ng·h/mL
same,AUC,"200 ug/kg, 200 μg/kg each, GM, read-out: AUC0-tau1",2590 ng·h/mL
same,AUC,"200 ug/kg, 200 μg/kg each, GM, read-out: AUC0-tau2",2650 ng·h/mL
same,Cmax,"200 ug/kg, 200 μg/kg each, GM, read-out: Global Cmax",2350 ng/mL
same,Tmax,"200 ug/kg, 200 μg/kg each, GM, read-out: Global tmax",2.57 h
same,half-life,[9],1.94 h
same,AUC(0-t),[9],8120 ng·h/mL
same,AUC,"200 ug/kg, 200 μg/kg each, mean, read-out: AUC0-t1",2520 ng·h/mL
same,AUC,"200 ug/kg, 200 μg/kg each, mean, read-out: AUC0-t2",2610 ng·h/mL
same,AUC,"200 ug/kg, 200 μg/kg each, mean, read-out: AUC0-t3",2720 ng·h/mL
same,AUC,"200 ug/kg, 200 μg/kg each, mean, read-out: AUC0-tau1",2620 ng·h/mL
same,AUC,"200 ug/kg, 200 μg/kg each, mean, read-out: AUC0-tau2",2690 ng·h/mL
same,AUC,"200 ug/kg, 200 μg/kg each, mean, read-out: AUC0-tau3",2810 ng·h/mL
same,Tmax,"200 ug/kg, 200 μg/kg each, median, read-out: Global tmax",4.5 h
same,Tmax,"200 ug/kg, 200 μg/kg each, median, read-out: tmax3",16.5 h
same,AUC(0-t),"250 ug/kg, 250 μg/kg each, GM",7490 ng·h/mL
same,AUC,"250 ug/kg, 250 μg/kg each, GM, read-out: AUC0-t3",2410 ng·h/mL
same,AUC,"250 ug/kg, 250 μg/kg each, GM, read-out: AUC0-tau1",2590 ng·h/mL
same,AUC,"250 ug/kg, 250 μg/kg each, GM, read-out: AUC0-tau2",2390 ng·h/mL
same,Cmax,"250 ug/kg, 250 μg/kg each, GM, read-out: Global Cmax",2260 ng/mL
same,Tmax,"250 ug/kg, 250 μg/kg each, GM, read-out: Global tmax",3.69 h
same,Tmax,"250 ug/kg, 250 μg/kg each, GM, read-out: tmax1",0.46 h
same,half-life,[10],1.88 h
same,AUC(0-t),[10],7550 ng·h/mL
same,AUC,"250 ug/kg, 250 μg/kg each, mean, read-out: AUC0-t1",2540 ng·h/mL
same,AUC,"250 ug/kg, 250 μg/kg each, mean, read-out: AUC0-t2",2350 ng·h/mL
